US5318985A, “Potentiation of NMDA antagonists” (Merrell Dow Pharmaceuticals Inc., priority 1991, dated 1994)
Counter-ions that a name gives are not always drawn. Like-named read-outs stand apart in the source and are kept apart here.

What was measured:
[1] = sodium salt; cited from earlier work
[2] = system: sound induced seizures in DBA/2J audiogenic mice; assay: inhibition of sound induced seizures in audiogenic mice (anti-epileptic activity); format: in vivo; details: two hours before 110 decibels sound for 30 seconds, 120 min
From the text: One method for evaluating the potential anti-epileptic activity of selected compounds is by their ability to inhibit sound induced seizures in audiogenic mice. DBA/2J audiogenic mice experience seizures when exposed to loud noises. Compounds which prevent this phenomenon are considered to be antiepilpetic agents.
Two hours after administration, they were placed individually in glass jars and exposed to a sound stimulus of 110 decibels for 30 seconds. Each mouse was observed during the sound exposure for signs of seizure activity. A graph was prepared based upon the dose administered and the percentage of animals protected at that dose. An ED50 was calculated from the graph. In some mice the test was performed with the only modification being the addition of 100 mg/kg of probenecid IP.
The test was conducted in the following manner.
Five minutes after administration, they were placed individually in glass jars and exposed to a sound stimulus of 110 decibels for 30 seconds. Each mouse was observed during the sound exposure for signs of seizure activity. A graph was prepared based upon the dose administered and the percentage of animals protected at that dose. An ED50 was calculated from the graph. The test was also performed in separate mice with the only modification being the addition of 100 mg/kg or 200 mg/kg of probenecid IP.

[3] = system: quinolinic acid induced clonic seizures in mice; assay: inhibition of quinolinic acid (intracerebroventricular) induced clonic seizures in mice; format: in vivo
Method: The intracerebroventricular administration of quinolinic acid induces clonic seizures in mice.
In this test, groups of 10 mice were pretreated intravenously with varying doses of R-4-Oxo-5-phosphononorvaline(hereinafter compound) ranging from 1 to 16 mg/kg. Five minutes later the mice were administered 7.7 micrograms of quinolinic acid intracerebroventricularly in a volume of 5 microliters of saline. […] A graph was prepared based upon the dose administered and the percentage of animals protected at that dose. An ED50 was calculated from the graph. The test was then repeated in separate mice with the only modification being the addition of 100 mg/kg of probenecid IP. The following ED50 's were obtained.
The protocol described above was repeated except that the compounds was administered intraperitoneally (dosage ranging from 0.5 to 32 mg/kg) and the pretreatment time was extended to 30 minutes. The following ED50 's were obtained.

## CCCN(CCC)S(=O)(=O)c1ccc(C(=O)O)cc1 [sodium salt of probenecid]
[1]
  water solubility: readily water soluble

## 3-[(phenacyl)methylamino]-2-carboxy-4,6-dichloroindole
[2]; compound alone, i.p. 25 to 400 mg/kg
  ED50: 183.7 mg/kg
[2]; compound i.p. + 100 mg/kg probenecid IP
  ED50: 45.4 mg/kg

## N[C@H](CC(=O)CP(=O)(O)O)C(=O)O [R-4-Oxo-5-phosphononorvaline]
[3]; Mus musculus, 5 min, compound alone, intravenous 1 to 16 mg/kg, five minutes before quinolinic acid 7.7 micrograms icv, read-out: ED50
  ED50: 4 mg/kg
[3]; Mus musculus, ip, 0.5 h, compound alone, intraperitoneal 0.5 to 32 mg/kg, 30 minutes pretreatment, read-out: ED50
  ED50: 16.3 mg/kg
[3]; compound intraperitoneal + probenecid (protocol as before: 100 mg/kg IP), 30 minutes pretreatment
  ED50: 8.0 mg/kg
[3]; compound intravenous + 100 mg/kg probenecid IP, five minutes before quinolinic acid 7.7 micrograms icv, 5 min
  ED50: 2.3 mg/kg
